Experiments:
[1] = tested on: social recognition (olfactory memory); test: Social recognition in the Wistar rat; assay type: in vivo; details: intraperitoneal route, 3 mg/kg, second encounter after 2 hours
Source text: Initially described in 1982 by THOR and HOLLOWAY (J. Comp. Physiol., 1982, 96, 1000-1006), the social recognition test has subsequently been proposed by various authors (DANTZER et al., Psychopharmacology, 1987, 91, 363-368; PER10 et al., Psycho-pharmacology, 1989, 97, 262-268) for studying the mnemocognitive effects of new compounds. The test is based on the natural expression of the olfactory memory of the rat and its natural tendency to forget and allows evaluation of memorisation, by recognition of a young congeneric animal, by an adult rat. A young rat (21 days), taken at random, is placed for 5 minutes in the cage housing an adult rat. With the aid of a video device, the experimenter observes the social recognition behaviour of the adult rat and measures its overall duration. The young rat is then removed from the adult rat's cage and is placed in its own cage until the second introduction. The adult rat is then given the compound under test (intraperitoneal route) and, after 2 hours, is again brought into the presence (5 minutes) of the young rat. The social recognition behaviour is then observed again and its duration measured.

[2] = tested on: PBQ-induced abdominal cramps; test: Abdominal contractions induced by phenyl-p-benzoquinone (PBQ) in the NMRI mouse; assay type: in vivo; details: IP, 20 mg/kg, PBQ at t=30 min, cramps counted t=35 to 45 min
Procedure: Intraperitoneal administration of an alcoholic solution of PBQ causes abdominal cramps in the mouse (SIEGMUND et al., Proc. Soc. Exp. Biol., 1957, 95, 729-731). The cramps are characterised by repeated contractions of the abdominal musculature, accompanied by extension of the hind limbs. Most analgesics antagonise these abdominal cramps (COLLIER et al., Brit. J. Pharmacol. Chem., 1968, 32, 295-310). At t=0 min., the animals are weighed and the compound being studied is administered by the IP route. A group of control animals is given the solvent used for the compound. At t=30 min., an alcoholic solution of PBQ (0.2%) is administered by the IP route in a volume of 0.25 ml/mouse. Immediately after administration of the PBQ, the animals are placed in cylinders of plexiglass (L=19.5 cm; I.D.=5 cm). From t=35 min. to t=45 min., the animals' reaction is observed and the experimenter notes the total number of abdominal cramps per animal.

CC1CC(=O)C=C(c2ccc(Cl)nc2)N1 (stereo not shown) [Example 8, 6-(6-Chloro-3-pyridyl)-2-methyl-2,3-dihydro-4(1H)-pyridone]
T2 − T1 (s) ± sem, difference between recognition times of the 2 encounters [1]: -17.2 ± 4.6 s

CC1CC(=O)C=C(c2cccs2)N1 (stereo not shown) [Example 2, 2-Methyl-6-(2-thienyl)-2,3-dihydro-4(1H)-pyridone]
Inhibition (%) of the number of abdominal cramps measured in the control animals [2]: 48%

CC1CC(=O)C=C(c2cccc(Cl)c2)N1 (stereo not shown) [Example 6, 6-(3-Chlorophenyl)-2-methyl-2,3-dihydro-4(1H)-pyridone]
Inhibition (%) of the number of abdominal cramps measured in the control animals [2]: 48% | T2 − T1 (s) ± sem, difference between recognition times of the 2 encounters [1]: -21.4 ± 5.1 s

CC1CC(=O)C=C(c2cccs2)N1C(=O)OC(C)(C)C (stereo not shown) [Example 1, Tert-butyl 2-methyl-4-oxo-6-(2-thienyl)-3,4-dihydro-1(2H)-pyridinecarboxylate]
T2 − T1 (s) ± sem, difference between recognition times of the 2 encounters [1]: -17.4 ± 2.5 s

CC1CC(=O)C=C(c2ccccc2)N1C(=O)OC(C)(C)C (stereo not shown) [Example 3, Tert-butyl 2-methyl-4-oxo-6-phenyl-3,4-dihydro-1(2H)-pyridine-carboxylate]
Inhibition (%) of the number of abdominal cramps measured in the control animals [2]: 59% | T2 − T1 (s) ± sem, difference between recognition times of the 2 encounters [1]: -25.3 ± 7.1 s

From patent US20060019995A1, “2,3-dihydro-4(1H)-pyridone derivatives , method for production thereof and pharmaceutical composition comprising the same” (priority 2002, published 2006)
